In article PMC10408569, “Recruitment of hexahydroquinoline as anticancer scaffold targeting inhibition of wild and mutants EGFR (EGFR^WT, EGFR^T790M, and EGFR^L858R)” (Journal of Enzyme Inhibition and Medicinal Chemistry, 2023):

Tests used:
[1] = tested on: MDA-MB-435; assay: NCI-60 anticancer screening (SRB); format: cell-based; details: Homo sapiens; MDA-MB-435, melanoma; one dose 10 μM; read-out: Growth Inhibition Percentage (GI %)
[2] = tested on: MDA-MB-468; assay: NCI-60 anticancer screening (SRB); format: cell-based; details: Homo sapiens; MDA-MB-468, breast cancer; one dose 10 μM; read-out: Growth Inhibition Percentage (GI %)
[3] = tested on: NCI-H522; assay: NCI-60 anticancer screening (SRB); format: cell-based; details: Homo sapiens; NCI-H522, NSC lung cancer; one dose 10 μM; read-out: Growth Inhibition Percentage (GI %)
[4] = tested on: HOP-62; assay: NCI-60 anticancer screening (SRB); format: cell-based; details: Homo sapiens; HOP-62, NSC lung cancer; one dose 10 μM; read-out: Growth Inhibition Percentage (GI %)
[5] = tested on: BT-549; assay: NCI-60 anticancer screening (SRB); format: cell-based; details: Homo sapiens; BT-549, breast cancer; one dose 10 μM; read-out: Growth Inhibition Percentage (GI %)
[6] = tested on: NCI/ADR-RES; assay: NCI-60 anticancer screening (SRB); format: cell-based; details: Homo sapiens, ovarian cancer, one dose 10 μM, read-out: Growth Inhibition Percentage (GI %)
[7] = tested on: HCC-2998; assay: NCI-60 anticancer screening (SRB); format: cell-based; details: Homo sapiens; HCC-2998, colon cancer; one dose 10 μM; read-out: Growth Inhibition Percentage (GI %)
[8] = tested on: OVCAR-8; assay: NCI-60 anticancer screening (SRB); format: cell-based; details: Homo sapiens; OVCAR-8, ovarian cancer; one dose 10 μM; read-out: Growth Inhibition Percentage (GI %)
[9] = tested on: CAKI-1; assay: NCI-60 anticancer screening (SRB); format: cell-based; details: Homo sapiens; CAKI-1, renal cancer; one dose 10 μM; read-out: Growth Inhibition Percentage (GI %)
[10] = tested on: SNB-19; assay: NCI-60 anticancer screening (SRB); format: cell-based; details: Homo sapiens; SNB-19, CNS cancer; one dose 10 μM; read-out: Growth Inhibition Percentage (GI %)
[11] = tested on: OVCAR-5; assay: NCI-60 anticancer screening (SRB); format: cell-based; details: Homo sapiens; OVCAR-5, ovarian cancer; one dose 10 μM; read-out: Growth Inhibition Percentage (GI %)
[12] = tested on: IGROV1; assay: NCI-60 anticancer screening (SRB); format: cell-based; details: Homo sapiens, IGROV-1; IGROV1, ovarian cancer; one dose 10 μM; read-out: Growth Inhibition Percentage (GI %)
[13] = tested on: SNB-75; assay: NCI-60 anticancer screening (SRB); format: cell-based; details: Homo sapiens; SNB-75, CNS cancer; one dose 10 μM; read-out: Growth Inhibition Percentage (GI %)
[14] = tested on: NCI-H322M; assay: NCI-60 anticancer screening (SRB); format: cell-based; details: Homo sapiens, NSC lung cancer, one dose 10 μM, read-out: Growth Inhibition Percentage (GI %)
[15] = tested on: MDA-MB-231; assay: NCI-60 anticancer screening (SRB); format: cell-based; details: Homo sapiens; MDA-MB-231, breast cancer; one dose 10 μM; read-out: Growth Inhibition Percentage (GI %)
[16] = tested on: MALME-3M; assay: NCI-60 anticancer screening (SRB); format: cell-based; details: Homo sapiens, melanoma, one dose 10 μM, read-out: Growth Inhibition Percentage (GI %)
[17] = tested on: EKVX; assay: NCI-60 anticancer screening (SRB); format: cell-based; details: Homo sapiens, NSC lung cancer, one dose 10 μM, read-out: Growth Inhibition Percentage (GI %)
[18] = tested on: UACC-257; assay: NCI-60 anticancer screening (SRB); format: cell-based; details: Homo sapiens; UACC-257, melanoma; one dose 10 μM; read-out: Growth Inhibition Percentage (GI %)
[19] = tested on: SK-MEL-2; assay: NCI-60 anticancer screening (SRB); format: cell-based; details: Homo sapiens; SK-MEL-2, melanoma; one dose 10 μM; read-out: Growth Inhibition Percentage (GI %)
[20] = tested on: UO-31; assay: NCI-60 anticancer screening (SRB); format: cell-based; details: Homo sapiens; UO-31, renal cancer; one dose 10 μM; read-out: Growth Inhibition Percentage (GI %)
[21] = tested on: OVCAR-3; assay: NCI-60 anticancer screening (SRB); format: cell-based; details: Homo sapiens; OVCAR-3, ovarian cancer; one dose 10 μM; read-out: Growth Inhibition Percentage (GI %)
[22] = tested on: A549/ATCC; assay: NCI-60 anticancer screening (SRB); format: cell-based; details: Homo sapiens; A549/ATCC, NSC lung cancer; one dose 10 μM; read-out: Growth Inhibition Percentage (GI %)
[23] = tested on: U251; assay: NCI-60 anticancer screening (SRB); format: cell-based; details: Homo sapiens, U-251; U251, CNS cancer; one dose 10 μM; read-out: Growth Inhibition Percentage (GI %)
[24] = tested on: MOLT-4; assay: NCI-60 anticancer screening (SRB); format: cell-based; details: Homo sapiens; MOLT-4, leukemia; one dose 10 μM; read-out: Growth Inhibition Percentage (GI %)
[25] = tested on: KM 12; assay: NCI-60 anticancer screening (SRB); format: cell-based; details: Homo sapiens, KM12; KM 12, colon cancer; one dose 10 μM; read-out: Growth Inhibition Percentage (GI %)
[26] = tested on: HCT-15; assay: NCI-60 anticancer screening (SRB); format: cell-based; details: Homo sapiens; HCT-15, colon cancer; one dose 10 μM; read-out: Growth Inhibition Percentage (GI %)
[27] = tested on: DU-145; assay: NCI-60 anticancer screening (SRB); format: cell-based; details: Homo sapiens; DU-145, prostate cancer; one dose 10 μM; read-out: Growth Inhibition Percentage (GI %)
[28] = tested on: NCI-H226; assay: NCI-60 anticancer screening (SRB); format: cell-based; details: Homo sapiens; NCI-H226, NSC lung cancer; one dose 10 μM; read-out: Growth Inhibition Percentage (GI %)
[29] = tested on: NCI 60 cancer cell lines; assay: NCI-60 anticancer screening (SRB), whole panel; format: cell-based, human; details: mean across the NCI-60 panel; one dose 10 μM
[30] = tested on: COLO 205; assay: NCI-60 anticancer screening (SRB); format: cell-based; details: Homo sapiens; COLO 205, colon cancer; one dose 10 μM; read-out: Growth Inhibition Percentage (GI %)
[31] = tested on: 786-0; assay: NCI-60 anticancer screening (SRB); format: cell-based; details: Homo sapiens; 786-0, renal cancer; one dose 10 μM; read-out: Growth Inhibition Percentage (GI %)
[32] = tested on: HL-60(TB); assay: NCI-60 anticancer screening (SRB); format: cell-based; details: Homo sapiens, leukemia, one dose 10 μM, read-out: Growth Inhibition Percentage (GI %)

Row | SMILES | inhibition at 10 µM [1] [%] | inhibition at 10 µM [2] [%] | inhibition at 10 µM [3] [%] | inhibition at 10 µM [4] [%] | inhibition at 10 µM [5] [%] | inhibition at 10 µM [6] [%] | inhibition at 10 µM [7] [%] | inhibition at 10 µM [8] [%] | inhibition at 10 µM [9] [%] | inhibition at 10 µM [10] [%] | inhibition at 10 µM [11] [%] | inhibition at 10 µM [12] [%] | inhibition at 10 µM [13] [%] | inhibition at 10 µM [14] [%] | inhibition at 10 µM [15] [%] | inhibition at 10 µM [16] [%] | inhibition at 10 µM [17] [%] | inhibition at 10 µM [18] [%] | inhibition at 10 µM [19] [%] | inhibition at 10 µM [20] [%] | other results
1 | CCOC(=O)C1=C(N)N(c2ccc(C)cc2)C2=C(C(=O)CC(C)(C)C2)C1c1cccnc1 (racemic) [12e, (±)-Ethyl 2-amino-7,7-dimethyl-1–(4-methylphenyl)-5-oxo-1-phenyl-4-(pyrdin-3-yl)-1,4,5,6,7,8-hexahydroquinoline-3-carboxylate] | < 10 | < 10 | < 10 | < 10 | < 10 | < 10 | < 10 | < 10 | < 10 | < 10 | < 10 | < 10 | 14 | < 10 | < 10 | < 10 | < 10 | < 10 | < 10 | 23 | inhibition at 10 µM [21]: < 10%; inhibition at 10 µM [22]: < 10%; inhibition at 10 µM [23]: < 10%; inhibition at 10 µM [24]: < 10%; inhibition at 10 µM [25]: < 10%; inhibition at 10 µM [26]: < 10%; inhibition at 10 µM [27]: < 10%; inhibition at 10 µM [28]: < 10%; GI % mean [29]: - ((-) = GI % mean less than 10); inhibition at 10 µM [30]: < 10%; inhibition at 10 µM [31]: < 10%; inhibition at 10 µM [32]: < 10%; melting point: 261 to 263 °C
2 | CCOC(=O)C1=C(N)N(c2ccc(Cl)cc2)C2=C(C(=O)CC(C)(C)C2)C1c1cccnc1 (racemic) [12f, (±)-Ethyl 2-amino-1–(4-chlorophenyl)-7,7-dimethyl-5-oxo-4-(pyridin-3-yl)-1,4,5,6,7,8-hexahydroquinoline-3-carboxylate] | < 10 | < 10 | < 10 | < 10 | < 10 | 11 | < 10 | < 10 | < 10 | < 10 | < 10 | < 10 | 21 | < 10 | < 10 | < 10 | < 10 | < 10 | < 10 | 21 | inhibition at 10 µM [21]: < 10%; inhibition at 10 µM [22]: 15%; inhibition at 10 µM [23]: < 10%; inhibition at 10 µM [24]: < 10%; inhibition at 10 µM [25]: < 10%; inhibition at 10 µM [26]: < 10%; inhibition at 10 µM [27]: < 10%; inhibition at 10 µM [28]: < 10%; GI % mean [29]: - ((-) = GI % mean less than 10); inhibition at 10 µM [30]: < 10%; inhibition at 10 µM [31]: < 10%; inhibition at 10 µM [32]: < 10%; melting point: 261 to 263 °C
